Numbering of substitutions follows the chain as printed.

The target of data set [1] is T1, aiPLA2 activity of recombinant human Prdx6 (Homo sapiens, UniProt P30041).
T1 sequence (P30041 1-224): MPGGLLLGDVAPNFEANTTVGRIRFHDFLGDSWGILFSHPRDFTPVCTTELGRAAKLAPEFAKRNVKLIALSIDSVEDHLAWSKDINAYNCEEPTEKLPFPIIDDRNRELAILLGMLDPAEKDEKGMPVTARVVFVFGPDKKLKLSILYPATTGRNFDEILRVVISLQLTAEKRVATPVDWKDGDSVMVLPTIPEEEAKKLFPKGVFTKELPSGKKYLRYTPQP
Nature of the data set: aiPLA2 (PLA2) activity of recombinant human Prdx6 in vitro, 3H-DPPC liposome substrate. It counts as biochemical. The procedure: (§1) The PLA2 activity of Prdx6 was measured as described previously. The substrate was dipalmitoylphosphatidylcholine (DPPC) with ^3H-9,10-palmitate in the sn-2 position of DPPC incorporated into lung surfactant-like liposomes as described above; substrate was incubated with enzyme for 60 min and activity was calculated from the liberation of ^3H-palmitate as measured by scintillation counting.
The effect of the PIP peptides on the aiPLA2 activity of human recombinant Prdx6 was determined by in vitro assay; the effective concentration of inhibitor was corrected for purity of the PIP preparation. Saturating concentrations of all three peptides (PIP-1, PIP-2, PIP-3) inhibited aiPLA2 activity by ~70% (Figure 2). The basis for the remaining 30% of activity that was not inhibited is unclear.

For data set [2], the target named is T1, aiPLA2 activity of recombinant human Prdx6. Put plainly: Chemical stability of dry powder on laboratory shelf, read out as inhibition of aiPLA2 activity. It counts as physicochemical. Particulars: room temperature, nine months, data not shown. From the text: These peptides have a molecular mass of 1156–1178 with a predicted isoelectric point in the slightly basic range. Each of the three peptides contains four hydrophobic amino acid residues, with two of those on the same surface, and one negatively charged hydrophilic aa. The PIP-2 sequence has three while PIPs-1 and -3 have only two positively charged aa. PIP-1 is slightly more hydrophobic than the other two peptides but, in our experience, all three peptides readily dissolve in aqueous solution. […] No antigenic determinants were identified in these peptides as determined by the free on-line program provided by the Immunomedicine Group of the Universidad Complutense (Madrid, Spain). The chemical stability of PIP-2 was tested by placing the dry powder on the laboratory shelf at room temperature; its inhibition of the aiPLA2 activity of recombinant human Prdx6 was unchanged when measured after nine months of shelf storage indicating good stability of the peptide as a dry powder (data not shown); stability of the other peptides was not tested.

The target in data set [3] is T2, PLA2 activity of Prdx6 (aiPLA2) (Mus musculus, UniProt O08709).
T2 construct: from tissue; host or cells: mouse (C57Bl/6) lung homogenate
T2 sequence (O08709 2-224): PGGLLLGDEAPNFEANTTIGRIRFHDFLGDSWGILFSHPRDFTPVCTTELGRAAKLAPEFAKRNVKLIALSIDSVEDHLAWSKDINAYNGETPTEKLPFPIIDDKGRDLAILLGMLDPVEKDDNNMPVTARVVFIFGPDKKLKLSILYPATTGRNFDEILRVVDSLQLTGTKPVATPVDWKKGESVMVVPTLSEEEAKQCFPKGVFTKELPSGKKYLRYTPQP
Nature of the data set: PLA2 activity of lung homogenate at pH 4 without Ca2+ (aiPLA2), PIP-2 added to the assay. It counts as biochemical. As to conditions: wild type mouse lung homogenate, no Ca2+; no inhibitor 8.7 ± 0.16; mean ± range, n = 2. The procedure:
as §1
(§2) Lung cells, like those of other organs, have multiple PLA2 enzymes. We evaluated the specificity of PIP-2 for inhibition of Prdx6 by measuring aiPLA2 activity in the lung homogenate of wild type and D140A-Prdx6 mutant mice. […] Measurement of PLA2 activity at pH 4 in the absence of Ca^2+ is relatively specific for the PLA2 activity of Prdx6 (aiPLA2). This activity was inhibited by 91% following addition of PIP-2 to the assay of the lung homogenate (Table 6). Although Prdx6 has relatively little PLA2 activity when measured at pH 7, other lung PLA2 enzymes, some of which are Ca^2+-dependent for activity, show activity at neutral pH; this activity was not affected by mutation of D140 in Prdx6 (Table 6). Unlike the effect of PIP-2 on aiPLA2 activity at pH 4, the addition of PIP-2 had no effect on activity of the lung PLA2 enzymes that are active at pH 7. Thus, aiPLA2 appears to be the only PLA2 enzyme, at least in the lung, that is inhibited by PIP-2.

Data set [4] concerns the target T3, PLA2 activity of Prdx6 (aiPLA2) (Mus musculus, UniProt O08709, D140A).
T3 construct: from tissue; host or cells: mouse (C57Bl/6) lung homogenate
T3 sequence (O08709 2-224 D140A): T2 sequence (O08709 2-224) with D139A
The description is as above. Particulars: D140A-Prdx6 knock-in mouse lung homogenate, no Ca2+; no inhibitor 0.2 ± 0.03; mean ± range, n = 2. It counts as biochemical. The procedure: as §1, §2

For data set [5], the system named is lung PLA2 enzymes that are active at pH 7. Nature of the data set: PLA2 activity of lung homogenate at pH 7 with Ca2+ (other lung PLA2 enzymes), PIP-2 added to the assay. Type of data set: biochemical, mouse. How it is done: as §1, §2
Data set [6] has as its target T4, aiPLA2 activity of lung homogenate (Mus musculus, UniProt O08709).
T4 construct: from tissue; host or cells: mouse (C57Bl/6) lung homogenate
T4 sequence (O08709 1-224): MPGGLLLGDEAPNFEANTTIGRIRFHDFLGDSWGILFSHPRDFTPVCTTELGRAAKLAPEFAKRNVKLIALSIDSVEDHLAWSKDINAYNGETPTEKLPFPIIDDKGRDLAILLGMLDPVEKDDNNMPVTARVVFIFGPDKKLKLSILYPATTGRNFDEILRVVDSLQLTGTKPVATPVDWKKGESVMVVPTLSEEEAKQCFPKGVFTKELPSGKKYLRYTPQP
Put plainly: aiPLA2 activity of homogenate of isolated mouse lungs perfused with PIP-2. As to conditions: inferred from lack of effect without liposomal carrier in lungs. The procedure: as §1
To confirm the requirement for liposomes as a delivery vehicle, lungs were perfused for 15 min with PIP-2 incorporated or not into liposomes, then perfused with fresh medium to clear extracellular PIP-2, and then homogenized and assayed for aiPLA2 activity. PIP-2 administered without liposomes had no effect on aiPLA2 activity of the lung homogenate while PIP-2 in liposomes inhibited activity by ~80% (Table 5).

Another data set has as its target T5, lung aiPLA2 activity (Mus musculus, UniProt O08709).
T5 construct: from tissue; host or cells: mouse (C57Bl/6) lung homogenate
T5 sequence (O08709 1-224): T4 sequence (O08709 1-224)
Nature of the data set: Lung aiPLA2 activity after a single IT or IV dose in mice in vivo. Particulars: single dose in liposomes, estimated. The procedure: For administration to mice, peptides were incorporated into liposomes that were prepared as previously described. Liposome composition was dipalmitoylphosphatidylcholine (DPPC): egg phosphatidylcholine: phosphatidylglycerol: cholesterol in the molar ratio 50:25:10:15. To measure the in vivo effect of the peptides, mice were injected with PIP-2 by either the intratracheal (IT) or the intravenous (IV) route and were sacrificed at intervals; lungs were removed from mice and homogenized for measurement of aiPLA2 activity.
as §1
To determine the effect and duration of a single dose of PIP-2 on aiPLA2 activity of mouse lungs in vivo, mice were injected with PIP-2 in liposomes by either the intratracheal (IT) or the intravenous (IV) route; individual lungs were removed at intervals, homogenized, and assayed for aiPLA2 activity. […]
Figure 4 Persistence and stability of PIP-2 in vivo. […] Lungs were harvested at intervals between 4 and 72 h after the PIP-2 administration, homogenized, and analyzed for aiPLA2 activity. […]

In the case of LHDFRHQIL [PIP-2], in data set [1] (deletions from 16-aa human-derived SP-A peptide, no-peptide control 92.0, one assay done in duplicate), the “Activity (aiPLA2 of recombinant hPrdx6), human-derived peptides” value is 29.9 nmol/min/mg Prot. Moreover, in data set [1] (recombinant human Prdx6, Figure 2, mean + SEM, n = 3), the “Inhibition of aiPLA2 activity at saturating concentrations of peptide” value was ~ 70%. Besides, in data set [1] (recombinant human Prdx6, concentration corrected for purity of the PIP preparation, Figure 2, n = 3), the “Concentration of peptide for inhibition of aiPLA2 activity by 50%” value is on record as ~ 6.6 µg/mg Prdx6. The “Chemical stability: inhibition of aiPLA2 activity after shelf storage” value in data set [2] is “unchanged”. The “PLA2 activity, pH 4, WT” value in data set [3] worked out at 1.6 ± 0.10 nmol/min/mg Prot. Also, the “PLA2 activity, pH 4, D140A-Prdx6” value in data set [4] was determined as 0.2 ± 0.06 nmol/min/mg Prot. For the same sequence, in data set [5] (D140A-Prdx6 knock-in mouse lung homogenate, no inhibitor 8.3 ± 0.26, mean ± range, n = 2), the “PLA2 activity, pH 7 + Ca2+, D140A-Prdx6” value worked out at 8.5 ± 0.10 nmol/min/mg Prot. In data set [5] (PIP-2 added to assay of lung homogenate), the “Effect on activity of lung PLA2 enzymes active at pH 7” value is “no effect”. Also, in data set [6], the “Ability to cross the cell membrane” value is reported as “not able to cross the cell membrane”. On lung aiPLA2 activity, the “Half-time for recovery of lung aiPLA2 activity (decrease of in vivo inhibition)” value is ~ 50 h.

Values taken from publication PMC6317155, “Identification of Small Peptides that Inhibit NADPH Oxidase (Nox2) Activation” (Antioxidants, 2018).
